Assay [1] has as its system K-562 cells. The assay is described as follows: Cell growth inhibition assay (CellTiter-Glo), K-562. Format: cell-based, human. The conditions noted are these: K-562, 4 days; for GI50: Homo sapiens, K562, 96 h, half-maximal growth inhibition; for K-562 TGI: total growth inhibition. As to the method:
The human leukemia cell lines MV-4-11, THP-1 and K-562 were employed to characterize the effect of BET inhibitors on cellular proliferation and viability. Cells were obtained from the American Type Culture Collection (ATCC) and cultured at 37° C. in a humidified 5% CO2 incubator in the following media: MV-4-11: DMEM high glucose (Animed #1-26F01-I), 10% FCS (Animed #2-01F26-I), 4 mM L-Glutamine (Animed #5-10K50), 1 mM Sodium Pyruvate (Animed # G03625P), 1× Penicillin-Streptomycin (Animed # F12478P); K-562: Iscove's MEM (Animed #1-28F16-I), 10% FCS (Animed #2-01F26-I), 4 mM L-Glutamine (Animed #5-10K50), 1× Penicillin-Streptomycin (Animed # F12478P); THP-1: RPMI-1640 (Animed #1-41F01-I), 10% FCS (Animed #2-01F26-I), 2 mM L-Glutamine (Animed #5-10K50), 10 mM HEPES (Animed #5-31F100), 1 mM Sodium Pyruvate (Animed # G03625P), 1× Penicillin-Streptomycin (Animed # F12478P). The AML lines MV-4-11 and THP-1 are very sensitive to BET inhibitors and show massive cell death upon BET inhibition (Zuber et al., Nature, 478 (2011), 524-8). Compound-mediated suppression of cell proliferation/viability was assessed by quantification of cellular ATP levels using the CellTiter-Glo (CTG) reagent (Promega). Briefly, cells were seeded in 20 μl fresh medium into 384-well plates, followed by addition of 5 μl medium containing compound dilutions at 5-fold their final intended concentration. Dose-response effects were assessed by 3-fold serial dilutions of the test compound, starting at 10 μM. Following incubation of the cells for 4 days at 37° C. and 5% CO2, the effect of inhibitors on cell viability was quantified following addition of 20 μl CTG and luminescence quantification (integration time: 100 ms) as per vendor manual, using a correspondingly equipped Tecan M200 multi-mode platereader (TECAN, Switzerland). For data analysis, the assay background value determined in wells containing medium, but no cells, was subtracted from all data points. To enable differentiation of cytotoxic from cytostatic compounds, the number of viable cells is assessed relative to that observed at the time of compound addition using a separate cell plate (day 0). The effect of a particular test compound concentration on cell proliferation/viability is expressed as percentage of the background- and day 0-corrected luminescence reading obtained for cells treated with vehicle only (DMSO, 0.1% final concentration), which is set as 100%, whereas that luminescence reading for wells containing medium is set as −100%. Compound concentrations leading to half-maximal (1050) and total growth inhibition (TGI) were determined using standard four parameter curve fitting.
(In general: Cellular ATP, detected with luciferase, serves as a proxy for viable cell number.)

The target in assay [2] is CREBBP bromodomain (His-CREBBP (1081-1197)) (Homo sapiens (Human), UniProt Q92793). As to the kind of experiment: AlphaScreen in-vitro binding assay for CREBBP. The conditions noted are these: acetyl-histone H4 peptide. The protocol:
In order to assess bromodomain selectivity, we set up a binding assay using the bromodomain encoded by the CREBBP gene. […] Reactions were incubated at 30° C. for 35 minutes. Subsequently 4.5 μl per well detection mix (50 mM HEPES, pH 7.5, 0.005% Tween20, 0.02% BSA, 150 mM NaCl, 45 μg/ml Ni-chelate acceptor beads, 45 μg/ml streptavidin-donor beads) (Perkin Elmer)) were added. After 60 minutes incubation at room temperature, plates were measured in a Perkin Elmer EnVision multilabel reader. IC50 values were determined from percent inhibition values at different compound concentrations by non-linear regression analysis.
Test compounds were dissolved in DMSO (10 mM) and transferred into 1.4 mL flat bottom or V-shaped Matrix tubes carrying a unique 2D matrix. The stock solutions were stored at […] if not used immediately. For the test procedure the vials were defrosted and identified by a scanner whereby a working sheet was generated that guided the subsequent working steps. Compound dilutions were made in 96 well plates. This format enabled the assay of maximally 40 individual test compounds at 8 concentrations (single points) including 4 reference compounds, if desired (known BET inhibitors from the prior art, for this and other assays of the type disclosed herein). The dilution protocol included the production of “pre-dilution plates”, “master plates” and “assay plates”.
Pre-dilution plates: 96 polypropylene well plates were used as pre-dilution plates. A total of 4 pre-dilution plates were prepared including 10 test compounds each on the plate positions A1-A10, one standard compound at A11 and one DMSO control at A12. All dilution steps were done on a HamiltonSTAR robot. […] These plates were used directly for the assay which was performed in a total volume of 13.55 μL. […] Cell Growth Inhibition Assay
(In Alpha technology, singlet oxygen from a donor bead excites a nearby acceptor bead.)

Molecules are shown by their SMILES. pIC50: −log10 of the molar value. A value given as a limit tells only on which side of the number the result lay.

Chain of CREBBP bromodomain (His-CREBBP (1081-1197)) (Q92793 1081-1197): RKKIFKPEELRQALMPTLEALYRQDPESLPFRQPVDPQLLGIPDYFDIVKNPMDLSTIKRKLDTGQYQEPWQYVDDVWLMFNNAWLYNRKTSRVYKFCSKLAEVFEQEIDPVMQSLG

The term GI50 denotes the concentration giving 50% growth inhibition. As a reminder, the pIC50 is the negative decadic logarithm of the IC50, by convention in mol/L. In the case of `COc1ncccc1-c1nn(C)c2c1C(=O)N(c1cc(C)c(=O)n(C)c1)[C@@H]2c1ccc(Cl)cc1` [Example 16, (R)-6-(4-chlorophenyl)-5-(1,5-dimethyl-6-oxo-1,6-dihydropyridin-3-yl)-3-(2-methoxypyridin-3-yl)-1-methyl-5,6-dihydropyrrolo[3,4-c]pyrazol-4(1H)-one], in assay [1], the GI50 is 197 nM and the “K-562 TGI” value was more than 10000 nM. Also, the pIC50 in assay [2] is 6.26.
As for `COc1ncccc1-n1nc2c(c1C)C(=O)N(c1cc(C)c(=O)n(C)c1)C2c1ccc(Cl)cc1` (stereo not drawn) [Example 17b, 6-(4-chlorophenyl)-5-(1,5-dimethyl-6-oxo-1,6-dihydropyridin-3-yl)-2-(2-methoxypyridin-3-yl)-3-methyl-5,6-dihydropyrrolo[3,4-c]pyrazol-4(2H)-one], in assay [1], the GI50 was found to be 154 nM and the “K-562 TGI” value is more than 10000 nM. Further, the pIC50 in assay [2] is 5.89.
With `CCOc1ncccc1-n1nc2c(c1C)C(=O)N(c1cc(C)c(=O)n(C)c1)C2c1ccc(Cl)cc1` (stereo not drawn) [Example 18b, 6-(4-chlorophenyl)-5-(1,5-dimethyl-6-oxo-1,6-dihydropyridin-3-yl)-2-(2-ethoxypyridin-3-yl)-3-methyl-5,6-dihydropyrrolo[3,4-c]pyrazol-4(2H)-one], in assay [1], the GI50 came out at 149 nM and the “K-562 TGI” value is more than 10000 nM. The same compound had a pIC50 in assay [2] of 5.89.
Turning to `Cc1nn(-c2cccnc2F)c2c1C(=O)N(c1cc(C)c(=O)n(C)c1)C2c1ccc(Cl)cc1` (stereo not drawn) [Example 19, 6-(4-chlorophenyl)-5-(1,5-dimethyl-6-oxo-1,6-dihydropyridin-3-yl)-1-(2-fluoropyridin-3-yl)-3-methyl-5,6-dihydropyrrolo[3,4-c]pyrazol-4(1H)-one], in assay [1], the GI50 amounted to 302 nM and the “K-562 TGI” value was more than 10000 nM. The compound further showed a pIC50 in assay [2] of 5.42.
Turning to `COc1ccc(-n2nc3c(c2C)C(=O)N(c2cc(C)c(=O)n(C)c2)C3c2ccc(Cl)cc2)cn1` (stereo not drawn) [Example 20a, 6-(4-chlorophenyl)-5-(1,5-dimethyl-6-oxo-1,6-dihydropyridin-3-yl)-2-(6-methoxypyridin-3-yl)-3-methyl-5,6-dihydropyrrolo[3,4-c]pyrazol-4(2H)-one], in assay [1], the GI50 was found to be 236 nM and the “K-562 TGI” value is more than 10000 nM. The same compound had a pIC50 in assay [2] of 5.70.
Turning to `COc1ncc(-n2nc(C)c3c2C(c2ccc(Cl)cc2)N(c2cc(C)c(=O)n(C)c2)C3=O)cn1` (stereo not drawn) [Example 21a, 6-(4-chlorophenyl)-5-(1,5-dimethyl-6-oxo-1,6-dihydropyridin-3-yl)-1-(2-methoxypyrimidin-5-yl)-3-methyl-5,6-dihydropyrrolo[3,4-c]pyrazol-4(1H)-one], in assay [1], it took 404 nM to inhibit growth by half (GI50) and the “K-562 TGI” value is more than 10000 nM. Besides, the pIC50 in assay [2] was less than 4.95.
For `COc1ncc(-n2nc3c(c2C)C(=O)N(c2cc(C)c(=O)n(C)c2)C3c2ccc(Cl)cc2)cn1` (stereo not drawn) [Example 21b, 6-(4-chlorophenyl)-5-(1,5-dimethyl-6-oxo-1,6-dihydropyridin-3-yl)-2-(2-methoxypyrimidin-5-yl)-3-methyl-5,6-dihydropyrrolo[3,4-c]pyrazol-4(2H)-one] the same measures were 510 nM, more than 10000 nM and 5.33.
The matching figures for `Cc1cc(N2C(=O)c3c(C4CC4)nn(-c4ccnn4C)c3[C@H]2c2ccc(Cl)cc2)cn(C)c1=O` [Example 22, (R)-6-(4-chlorophenyl)-3-cyclopropyl-5-(1,5-dimethyl-6-oxo-1,6-dihydropyridin-3-yl)-1-(1-methyl-1H-pyrazol-5-yl)-5,6-dihydropyrrolo[3,4-c]pyrazol-4(1H)-one]: 278 nM, more than 10000 nM and 5.54.
For `Cc1cc(N2C(=O)c3c(C4CC4)n[nH]c3[C@H]2c2ccc(Cl)cc2)cn(C)c1=O` [Example 24, (R)-6-(4-chlorophenyl)-3-cyclopropyl-5-(1,5-dimethyl-6-oxo-1,6-dihydropyridin-3-yl)-5,6-dihydropyrrolo[3,4-c]pyrazol-4(1H)-one] the same measures were 103 nM, more than 10000 nM and 5.77.
For the compound `COc1ncccc1-n1nc(C)c2c1[C@@H](c1ccc(Cl)cc1)N(c1cc(C)c(=O)n(C)c1)C2=O` [Example 25, (R)-6-(4-chlorophenyl)-5-(1,5-dimethyl-6-oxo-1,6-dihydropyridin-3-yl)-1-(2-methoxypyridin-3-yl)-3-methyl-5,6-dihydropyrrolo[3,4-c]pyrazol-4(1H)-one], in assay [1], the GI50 is 206 nM and the “K-562 TGI” value was more than 10000 nM. The same compound showed a pIC50 in assay [2] of 5.70.
Turning to `COc1ncccc1-n1nc2c(c1C)C(=O)N(c1cc(C)c(=O)n(C)c1)[C@@H]2c1ccc(Cl)cc1` [Example 26, (R)-6-(4-chlorophenyl)-5-(1,5-dimethyl-6-oxo-1,6-dihydropyridin-3-yl)-2-(2-methoxypyridin-3-yl)-3-methyl-5,6-dihydropyrrolo[3,4-c]pyrazol-4(2H)-one], in assay [1], the GI50 came out at 174 nM and the “K-562 TGI” value is more than 10000 nM. The compound also showed a pIC50 in assay [2] of 6.00.
For `Cc1[nH]nc2c1C(=O)N(c1cc(Cl)c(=O)n(C)c1)[C@@H]2c1ccc(Cl)cc1` [Example 28, (R)-5-(5-chloro-1-methyl-6-oxo-1,6-dihydropyridin-3-yl)-6-(4-chlorophenyl)-3-methyl-5,6-dihydropyrrolo[3,4-c]pyrazol-4(2H)-one], in assay [1], it took 318 nM to inhibit growth by half (GI50) and the “K-562 TGI” value is more than 10000 nM. The pIC50 in assay [2] is 5.66.

The values above are taken from patent US9714249B2 (Novartis AG, priority 2013, dated 2017).
